US7060678B2, “Peptides comprising furanoid sugar amino acids for the treatment of cancer” (Dabur Research Foundation, priority 2003, dated 2006)
Where two headings read alike, the source gives them in different places. Starred links: 1 amine or outer side, 2 acyl side, 3 side chain; linkers in the order of their positions; H or OH if unused. Non-standard residues stand in square brackets, D forms with d. Residues, ends and D or L forms follow the SMILES beside them. 2Furoyl(5-aminomethyl) = O=C(c1ccc(CN[*:1])o1)[*:2]; X1 = O=C(C1CCC(CN[*:1])O1)[*:2]

Key:
PA1 (human ovary) = test: MTT cytotoxicity assay, PA1 cells; assay type: cell-based; details: 48 hours
From the text: (§1) The following cell lines were used.

HeP-2 (larynx) = test: MTT cytotoxicity assay, HeP-2 cells; assay type: cell-based, human; details: human, 48 hours
From the text: as §1

HeP-G2 (liver) = test: MTT cytotoxicity assay, HeP-G2 cells; assay type: cell-based, human; details: human, 48 hours
From the text: as §1

KB (oral) = test: MTT cytotoxicity assay, KB cells; assay type: cell-based, human; details: human, 48 hours
From the text: as §1

[1] = tested on: MiaPaCa.2 (human pancreas); test: MTT cytotoxicity assay, MiaPaCa.2 cells; assay type: cell-based; details: 48 hours
From the text: as §1

ECV-304 (endothelial) = details: ECV-304 cells, 48 hours, NA = Not Active
From the text: Although sterile phosphate buffered saline was used to prepare each stock solution for the testing described in the following example, other diluents may be used such as buffered saline, isotonic NaCl, Ringer's solution, water, distilled water, polyethylene glycol (neat or in water), Tween in water, dimethylsulfoxide up to 50% in water, propylene glycol (neat or in water), phosphate buffered saline, balanced salt solution, glycerol, and other conventional fluids that are suitable for parentral administration. To obtain a pH in the range of approximately 3.5 to 7.0, for each stock solution, the pH can be adjusted by using 1N HCl for lowering the pH or 1N NaOH for raising the pH, although other buffers such as citrate buffer, phosphate buffer and the like or other conventional agents for adjusting the pH can be used.
The MTT assay is based on the principle of uptake of MTT [3-[4,5-dimethylthiazol-2-yl]-2,5-diphenyl tetrazolium bromide], a tetrazolium salt, by the metabolically active cells where it is metabolized by active mitochondria into a blue colored formazan product which can be read spectrophotometrically. […] The formazan crystals formed inside the cells were dissolved with a detergent comprising of 10% Sodium dodecyl sulfate and 0.01 N HCl and optical density read on a multi-scan ELISA reader. The optical density was directly proportional to the number of proliferating and metabolically active cells. The following cell lines were used. PA1(human ovary), PTC (colon), HeP-2 (larynx), MiaPaCa.2 (human pancreas), KB (oral), ECV-304 (endothelial) and HeP-G2 (liver).

PTC (colon) = test: MTT cytotoxicity assay, PTC cells; assay type: cell-based, human; details: human, 48 hours
From the text: as §1

Compound	Percent Cytotoxicity (PA1 (human ovary); human, 1 nM)	Percent Cytotoxicity (PA1 (human ovary); human, 10 nM)	Percent Cytotoxicity (PA1 (human ovary); human, 100 nM)	Percent Cytotoxicity (PA1 (human ovary); human, 1 μM)	Percent Cytotoxicity (HeP-2 (larynx); 1 nM)	Percent Cytotoxicity (HeP-2 (larynx); 10 nM)	Percent Cytotoxicity (HeP-2 (larynx); 100 nM)	Percent Cytotoxicity (HeP-2 (larynx); 1 μM)	Percent Cytotoxicity (KB (oral); 1 nM)	Percent Cytotoxicity (KB (oral); 10 nM)	Percent Cytotoxicity (KB (oral); 100 nM)	Percent Cytotoxicity (KB (oral); 1 μM)	Percent Cytotoxicity ([1]; human, 1 nM)	Percent Cytotoxicity ([1]; human, 10 nM)	Percent Cytotoxicity ([1]; human, 100 nM)	Percent Cytotoxicity (ECV-304 (endothelial); peptide 1 nM)	Percent Cytotoxicity (ECV-304 (endothelial); peptide 10 nM)	Percent Cytotoxicity (ECV-304 (endothelial); peptide 100 nM)	further results
CSCC[C@H](NC(=O)[C@@H](N)CC(C)C)C(=O)N[C@@H](Cc1ccc(O)cc1)C(=O)NC[C@H]1O[C@H](C(=O)N[C@H](C(=O)N[C@@H](Cc2ccc(O)cc2)C(=O)N[C@@H](CC(C)C)C(=O)N[C@@H](CCCCN)C(=O)O)[C@@H](C)O)[C@@H](OCc2ccccc2)[C@@H]1OCc1ccccc1 [SEQ ID NO: 3, Leu-Met-Tyr-Saa2-Thr-Tyr-Leu-Lys]	16.8 ± 1.4%	18.0 ± 1.8%	12.5 ± 0.0%	10.8 ± 0.6%	12.6 ± 2.8%	15.4 ± 1.3%	13.9 ± 0.5%	10.8 ± 0.5%	12.9 ± 1.3%	17.7 ± 0.5%	14.9 ± 1.1%	9.5 ± 0.1%	21.8 ± 2.1%	24.0 ± 2.7%	17.9 ± 1.8%	–	–	–	Percent Cytotoxicity (HeP-G2 (liver); 1 nM): 12.3 ± 0.4%; Percent Cytotoxicity (HeP-G2 (liver); 10 nM): 10.7 ± 0.1%; Percent Cytotoxicity (HeP-G2 (liver); 100 nM): 9.5 ± 1.0%; Percent Cytotoxicity (HeP-G2 (liver); 1 μM): 6.9 ± 0.0%; Percent Cytotoxicity ([1]; human, 1 μM): 13.9 ± 0.4%
CSCC[C@H](NC(=O)[C@@H](N)CC(C)C)C(=O)NCC1CCC(C(=O)N[C@H](C(=O)N[C@@H](Cc2ccc(O)cc2)C(=O)N[C@@H](CC(C)C)C(=O)N[C@@H](CCCCN)C(=O)O)[C@@H](C)O)O1 (stereo partly drawn) [SEQ ID NO: 8, Leu-Met-Saa3-Thr-Tyr-Leu-Lys] (H-LM[X1]TYLK-OH)	–	–	–	–	–	–	–	–	–	–	–	–	–	–	–	15.3 ± 1.6%	12.7 ± 1.6%	10.8 ± 2.9%	Percent Cytotoxicity (PA1 (human ovary); PA1 cells, peptide 1 nM, NA = Not Active): 12.7 ± 1.9%; Percent Cytotoxicity (PA1 (human ovary); PA1 cells, peptide 10 nM, NA = Not Active): 18.0 ± 1.0%; Percent Cytotoxicity (PA1 (human ovary); PA1 cells, peptide 100 nM, NA = Not Active): 14.8 ± 1.9%; Percent Cytotoxicity (PA1 (human ovary); PA1 cells, peptide 1 μM, NA = Not Active): 9.6 ± 1.0%; Percent Cytotoxicity (ECV-304 (endothelial); peptide 1 μM): 7.9 ± 0.1%; Percent Cytotoxicity ([1]; MiaPaCa.2 cells, peptide 1 nM, NA = Not Active): 22.9 ± 2.2%; Percent Cytotoxicity ([1]; MiaPaCa.2 cells, peptide 10 nM, NA = Not Active): 25.5 ± 2.9%; Percent Cytotoxicity ([1]; MiaPaCa.2 cells, peptide 100 nM, NA = Not Active): 22.9 ± 2.6%; Percent Cytotoxicity ([1]; MiaPaCa.2 cells, peptide 1 μM, NA = Not Active): 19.0 ± 0.6%
CSCC[C@H](NC(=O)[C@@H](N)CC(C)C)C(=O)N[C@@H](Cc1ccc(O)cc1)C(=O)NCc1ccc(C(=O)N[C@@H](Cc2ccc(O)cc2)C(=O)N[C@@H](CC(C)C)C(=O)N[C@@H](CCCCN)C(=O)O)o1 [SEQ ID NO: 10, Leu-Met-Tyr-Saa1-Tyr-Leu-Lys] (H-LMY[2Furoyl(5-aminomethyl)]YLK-OH)	37.5 ± 3.8%	32.0 ± 2.9%	31.0 ± 2.7%	28.4 ± 2.2%	35.4 ± 2.9%	32.0 ± 2.1%	31.8 ± 3.1%	28.9 ± 2.1%	32.0 ± 2.5%	31.9 ± 2.9%	29.6 ± 0.7%	26.0 ± 1.8%	14.9 ± 1.9%	12.0 ± 1.7%	9.0 ± 0.6%	15.2 ± 1.0%	12.9 ± 0.5%	9.4 ± 0.2%	Percent Cytotoxicity (PTC (colon); 1 nM): 30.5 ± 3.2%; Percent Cytotoxicity (PTC (colon); 10 nM): 28.0 ± 2.2%; Percent Cytotoxicity (PTC (colon); 100 nM): 25.6 ± 2.2%; Percent Cytotoxicity (PTC (colon); 1 μM): 21.8 ± 2.8%
